Results from ChEMBL document CHEMBL2440076, “New triarylpyrazoles as broad-spectrum anticancer agents: design, synthesis, and biological evaluation” (Eur J Med Chem, 2013).

Experiments:
Assay type in all cases: functional
OVCAR-8 = test: Growth inhibition of human OVCAR8 cells assessed as cell growth at 5X10'-8 M after 48 hrs by sulforhodamine B assay; settings: OVCAR-8, 48 h, read-out: Activity
RPMI-8226 [1] = test: Growth inhibition of human RPMI8226 cells assessed as cell growth at 5X10'-6 M after 48 hrs by sulforhodamine B assay; settings: RPMI-8226, 48 h, read-out: Activity
SF-268 = test: Growth inhibition of human SF268 cells assessed as cell growth at 5X10'-6 M after 48 hrs by sulforhodamine B assay; settings: SF-268, 48 h, read-out: Activity
SNB-19 = test: Growth inhibition of human SNB19 cells assessed as cell growth at 5X10'-6 M after 48 hrs by sulforhodamine B assay; settings: SNB-19, 48 h, read-out: Activity
786-0 = test: Growth inhibition of human 786-0 cells assessed as cell growth at 5X10'-7 M after 48 hrs by sulforhodamine B assay; settings: 786-0, 48 h, read-out: Activity
BT-549 = test: Growth inhibition of human BT549 cells assessed as cell growth at 5X10'-5 M after 48 hrs by sulforhodamine B assay; settings: BT-549, 48 h, read-out: Activity
HCT-116 = test: Growth inhibition of human HCT116 cells assessed as cell growth at 5X10'-8 M after 48 hrs by sulforhodamine B assay; settings: HCT-116, 48 h, read-out: Activity
U-251 = test: Growth inhibition of human U251 cells assessed as cell growth at 5X10'-6 M after 48 hrs by sulforhodamine B assay; settings: U-251, 48 h, read-out: Activity
MCF7 [2] = test: Growth inhibition of human MCF7 cells assessed as cell growth at 5X10'-8 M after 48 hrs by sulforhodamine B assay; settings: MCF7, 48 h, read-out: Activity
PC-3 = test: Growth inhibition of human PC3 cells assessed as cell growth at 5X10'-9 M after 48 hrs by sulforhodamine B assay; settings: PC-3, 48 h, read-out: Activity
HT-29 [3] = test: Growth inhibition of human HT-29 cells assessed as cell growth at 5X10'-9 M after 48 hrs by sulforhodamine B assay; settings: HT-29, 48 h, read-out: Activity
K562 [4] = test: Growth inhibition of human K562 cells assessed as cell growth at 5X10'-8 M after 48 hrs by sulforhodamine B assay; settings: K562, 48 h, read-out: Activity
MCF7 [5] = test: Growth inhibition of human MCF7 cells assessed as cell growth at 5X10'-9 M after 48 hrs by sulforhodamine B assay; settings: MCF7, 48 h, read-out: Activity
RPMI-8226 [6] = test: Growth inhibition of human RPMI8226 cells assessed as cell growth at 5X10'-5 M after 48 hrs by sulforhodamine B assay; settings: RPMI-8226, 48 h, read-out: Activity
MDA-MB-435 [7] = test: Growth inhibition of human MDA-MB-435 cells assessed as cell growth at 5X10'-6 M after 48 hrs by sulforhodamine B assay; settings: MDA-MB-435, 48 h, read-out: Activity
HT-29 [8] = test: Growth inhibition of human HT-29 cells assessed as cell growth at 5X10'-6 M after 48 hrs by sulforhodamine B assay; settings: HT-29, 48 h, read-out: Activity
ACHN [9] = test: Growth inhibition of human ACHN cells assessed as cell growth at 5X10'-9 M after 48 hrs by sulforhodamine B assay; settings: read-out: Activity
SK-MEL-5 = test: Growth inhibition of human SK-MEL-5 cells assessed as cell growth at 5X10'-6 M after 48 hrs by sulforhodamine B assay; settings: SK-MEL-5, 48 h, read-out: Activity
NCI-H522 = test: Growth inhibition of human NCI-H522 cells assessed as cell growth at 5X10'-8 M after 48 hrs by sulforhodamine B assay; settings: NCI-H522, 48 h, read-out: Activity
RPMI-8226 [10] = test: Growth inhibition of human RPMI8226 cells assessed as cell growth at 5X10'-8 M after 48 hrs by sulforhodamine B assay; settings: RPMI-8226, 48 h, read-out: Activity
HL-60(TB) [11] = test: Growth inhibition of human HL-60(TB) cells assessed as cell growth at 5X10'-9 M after 48 hrs by sulforhodamine B assay; settings: HL-60, 48 h, read-out: Activity
RPMI-8226 [12] = test: Growth inhibition of human RPMI8226 cells assessed as cell growth at 5X10'-7 M after 48 hrs by sulforhodamine B assay; settings: RPMI-8226, 48 h, read-out: Activity
Malme-3M = test: Growth inhibition of human MALME-3M cells assessed as cell growth at 5X10'-8 M after 48 hrs by sulforhodamine B assay; settings: read-out: Activity
ACHN [13] = test: Growth inhibition of human ACHN cells assessed as cell growth at 5X10'-5 M after 48 hrs by sulforhodamine B assay; settings: read-out: Activity
MDA-MB-468 = test: Growth inhibition of human MDA-MB-468 cells assessed as cell growth at 5X10'-9 M after 48 hrs by sulforhodamine B assay; settings: MDA-MB-468, 48 h, read-out: Activity
TK-10 [14] = test: Growth inhibition of human TK10 cells assessed as cell growth at 5X10'-7 M after 48 hrs by sulforhodamine B assay; settings: TK-10, 48 h, read-out: Activity
COLO 205 = test: Growth inhibition of human COLO205 cells assessed as cell growth at 5X10'-9 M after 48 hrs by sulforhodamine B assay; settings: COLO 205, 48 h, read-out: Activity
HL-60(TB) [15] = test: Growth inhibition of human HL-60(TB) cells assessed as cell growth at 5X10'-7 M after 48 hrs by sulforhodamine B assay; settings: HL-60, 48 h, read-out: Activity
NCI-H23 = test: Growth inhibition of human NCI-H23 cells assessed as cell growth at 5X10'-9 M after 48 hrs by sulforhodamine B assay; settings: NCI-H23, 48 h, read-out: Activity
ACHN [16] = test: Growth inhibition of human ACHN cells assessed as cell growth at 5X10'-7 M after 48 hrs by sulforhodamine B assay; settings: read-out: Activity
[17] = Growth inhibition of human NCI-ADR-RES cells assessed as cell growth at 5X10'-8 M after 48 hrs by sulforhodamine B assay; settings: read-out: Activity
MDA-MB-435 [18] = test: Growth inhibition of human MDA-MB-435 cells assessed as cell growth at 5X10'-8 M after 48 hrs by sulforhodamine B assay; settings: MDA-MB-435, 48 h, read-out: Activity
RXF 393 = test: Growth inhibition of human RXF393 cells assessed as cell growth at 5X10'-5 M after 48 hrs by sulforhodamine B assay; settings: RXF 393, 48 h, read-out: Activity
SF-295 = test: Growth inhibition of human SF295 cells assessed as cell growth at 5X10'-5 M after 48 hrs by sulforhodamine B assay; settings: SF-295, 48 h, read-out: Activity
K562 [19] = test: Growth inhibition of human K562 cells assessed as cell growth at 5X10'-9 M after 48 hrs by sulforhodamine B assay; settings: K562, 48 h, read-out: Activity
HOP-92 = test: Growth inhibition of human HOP92 cells assessed as cell growth at 5X10'-6 M after 48 hrs by sulforhodamine B assay; settings: HOP-92, 48 h, read-out: Activity
TK-10 [20] = test: Growth inhibition of human TK10 cells assessed as cell growth at 5X10'-6 M after 48 hrs by sulforhodamine B assay; settings: TK-10, 48 h, read-out: Activity

COc1cc(-c2nn(-c3cccc(NC(=O)Nc4ccc(Cl)c(Cl)c4)c3)cc2-c2ccncc2)ccc1Cl
growth at 0.05 µM (OVCAR-8): 96% | growth at 5 µM (RPMI-8226 [1]): -10% | growth at 5 µM (SF-268): 8% | growth at 5 µM (SNB-19): 21% | growth at 0.5 µM (786-0): 89% | growth at 50 µM (BT-549): -3% | growth at 0.05 µM (HCT-116): 107% | growth at 5 µM (U-251): -32% | growth at 0.05 µM (MCF7 [2]): 92% | growth at 0.005 µM (PC-3): 99% | growth at 0.005 µM (HT-29 [3]): 102% | growth at 0.05 µM (K562 [4]): 103% | growth at 0.005 µM (MCF7 [5]): 91% | growth at 50 µM (RPMI-8226 [6]): -11% | growth at 5 µM (MDA-MB-435 [7]): -39% | growth at 5 µM (HT-29 [8]): 2% | growth at 0.005 µM (ACHN [9]): 99% | growth at 5 µM (SK-MEL-5): -86% | growth at 0.05 µM (NCI-H522): 101% | growth at 0.05 µM (RPMI-8226 [10]): 92% | growth at 0.005 µM (HL-60(TB) [11]): 111% | growth at 0.5 µM (RPMI-8226 [12]): 45% | growth at 0.05 µM (Malme-3M): 109% | growth at 50 µM (ACHN [13]): 5% | growth at 0.005 µM (MDA-MB-468): 94% | growth at 0.5 µM (TK-10 [14]): 83% | growth at 0.005 µM (COLO 205): 109% | growth at 0.5 µM (HL-60(TB) [15]): 98% | growth at 0.005 µM (NCI-H23): 97% | growth at 0.5 µM (ACHN [16]): 70% | growth at 0.05 µM [17]: 106% | growth at 0.05 µM (MDA-MB-435 [18]): 97% | growth at 50 µM (RXF 393): -43% | growth at 50 µM (SF-295): -42% | growth at 0.005 µM (K562 [19]): 103% | growth at 5 µM (HOP-92): -40% | growth at 5 µM (TK-10 [20]): 11%

COc1cc(-c2nn(-c3cccc(NC(=O)Nc4cccc(C(F)(F)F)c4)c3)cc2-c2ccncc2)ccc1Cl
growth at 0.05 µM (OVCAR-8): 101% | growth at 5 µM (RPMI-8226 [1]): -10% | growth at 5 µM (SF-268): 1% | growth at 5 µM (SNB-19): -8% | growth at 0.5 µM (786-0): 91% | growth at 50 µM (BT-549): -26% | growth at 0.05 µM (HCT-116): 99% | growth at 5 µM (U-251): -86% | growth at 0.05 µM (MCF7 [2]): 93% | growth at 0.005 µM (PC-3): 92% | growth at 0.005 µM (HT-29 [3]): 99% | growth at 0.05 µM (K562 [4]): 95% | growth at 0.005 µM (MCF7 [5]): 94% | growth at 50 µM (RPMI-8226 [6]): -8% | growth at 5 µM (MDA-MB-435 [7]): -47% | growth at 5 µM (HT-29 [8]): -54% | growth at 0.005 µM (ACHN [9]): 104% | growth at 5 µM (SK-MEL-5): -97% | growth at 0.05 µM (NCI-H522): 91% | growth at 0.05 µM (RPMI-8226 [10]): 97% | growth at 0.005 µM (HL-60(TB) [11]): 90% | growth at 0.5 µM (RPMI-8226 [12]): 40% | growth at 0.05 µM (Malme-3M): 87% | growth at 50 µM (ACHN [13]): -7% | growth at 0.005 µM (MDA-MB-468): 93% | growth at 0.5 µM (TK-10 [14]): 79% | growth at 0.005 µM (COLO 205): 98% | growth at 0.5 µM (HL-60(TB) [15]): 85% | growth at 0.005 µM (NCI-H23): 96% | growth at 0.5 µM (ACHN [16]): 58% | growth at 0.05 µM [17]: 97% | growth at 0.05 µM (MDA-MB-435 [18]): 97% | growth at 50 µM (RXF 393): -53% | growth at 50 µM (SF-295): -77% | growth at 0.005 µM (K562 [19]): 99% | growth at 5 µM (HOP-92): -45% | growth at 5 µM (TK-10 [20]): 10%

O=C(Nc1cccc(-n2cc(-c3ccncc3)c(-c3ccc(Cl)c(O)c3)n2)c1)c1ccc(N2CCOCC2)c(C(F)(F)F)c1
growth at 0.05 µM (OVCAR-8): 106% | growth at 5 µM (RPMI-8226 [1]): 9% | growth at 5 µM (SF-268): 51% | growth at 5 µM (SNB-19): 45% | growth at 0.5 µM (786-0): 95% | growth at 50 µM (BT-549): 36% | growth at 0.05 µM (HCT-116): 97% | growth at 5 µM (U-251): 16% | growth at 0.05 µM (MCF7 [2]): 85% | growth at 0.005 µM (PC-3): 100% | growth at 0.005 µM (HT-29 [3]): 101% | growth at 0.05 µM (K562 [4]): 100% | growth at 0.005 µM (MCF7 [5]): 89% | growth at 50 µM (RPMI-8226 [6]): -14% | growth at 5 µM (MDA-MB-435 [7]): 28% | growth at 5 µM (HT-29 [8]): 79% | growth at 0.005 µM (ACHN [9]): 102% | growth at 5 µM (SK-MEL-5): 31% | growth at 0.05 µM (NCI-H522): 94% | growth at 0.05 µM (RPMI-8226 [10]): 99% | growth at 0.005 µM (HL-60(TB) [11]): 98% | growth at 0.5 µM (RPMI-8226 [12]): 83% | growth at 0.05 µM (Malme-3M): 87% | growth at 50 µM (ACHN [13]): 8% | growth at 0.005 µM (MDA-MB-468): 95% | growth at 0.5 µM (TK-10 [14]): 97% | growth at 0.005 µM (COLO 205): 98% | growth at 0.5 µM (HL-60(TB) [15]): 130% | growth at 0.005 µM (NCI-H23): 93% | growth at 0.5 µM (ACHN [16]): 85% | growth at 0.05 µM [17]: 98% | growth at 0.05 µM (MDA-MB-435 [18]): 93% | growth at 50 µM (RXF 393): -37% | growth at 50 µM (SF-295): -59% | growth at 0.005 µM (K562 [19]): 96% | growth at 5 µM (HOP-92): -7% | growth at 5 µM (TK-10 [20]): 94%
